Like-named read-outs stand apart in the source and are kept apart here.
Tests used:
[1] = system: Key Broadleaf Weed and Crop Species; test: Post-Emergent Test II: postemergent herbicidal activity, visual rating after 14 d (Table 7); format: in vivo; conditions: post-emergence, 336 h; for pest or weed control at 35 g/ha: 35 g ai/ha; for pest or weed control at 70 g/ha: 70 g ai/ha; for pest or weed control at 140 g/ha: 140 g ai/ha
Method in brief: (§1)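 Greenhouse plants at first or second true leaf stage sprayed with compound in acetone/DMSO-based spray solution with crop oil concentrate and Triton X-155 at 187 L/ha, tested at highest rate and ½× to 1/16× dilutions; solvent blank controls. Injury rated visually 0–100% versus untreated plants after 14 d.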

[2] = system: Key Grass and Sedge Weeds as well as Grass Crops; test: Post-Emergent Test II: postemergent herbicidal activity, visual rating after 14 d (Table 8); format: in vivo; conditions: post-emergence, 336 h; for pest or weed control at 35 g/ha: 35 g ai/ha; for pest or weed control at 70 g/ha: 70 g ai/ha; for pest or weed control at 140 g/ha: 140 g ai/ha
Method in brief: as §1

[3] = ABUTH: velvetleaf (Abutilon theophrasti), read-out: Visual Growth Reduction (%) 14 Days After Application ABUTH
[4] = AMARE: redroot pigweed (Amaranthus retroflexus), read-out: Visual Growth Reduction (%) 14 Days After Application AMARE
[5] = BRSNN: oilseed rape, canola (Brassica napus), read-out: Visual Growth Reduction (%) 14 Days After Application BRSNN
[6] = CHEAL: lambsquarters (Chenopodium album), read-out: Visual Growth Reduction (%) 14 Days After Application CHEAL
[7] = EPHHL: wild poinsettia (Euphorbia heterophylla), read-out: Visual Growth Reduction (%) 14 Days After Application EPHHL
[8] = HELAN: sunflower (Helianthus annuus), read-out: Visual Growth Reduction (%) 14 Days After Application HELAN
[9] = barnyardgrass (Echinochloa crus-galli), read-out: Visual Growth Reduction (%) 14 Days After Application, ECHCG
[10] = giant foxtail (Setaria faberi), read-out: Visual Growth Reduction (%) 14 Days After Application, SETFA
[11] = maize, corn (Zea mays), read-out: Visual Growth Reduction (%) 14 Days After Application, ZEAMX
[12] = rice (Oryza sativa), read-out: Visual Growth Reduction (%) 14 Days After Application, ORYSA
[13] = wheat, spring (Triticum aestivum), read-out: Visual Growth Reduction (%) 14 Days After Application, TRZAS
[14] = yellow nutsedge (Cyperus esculentus), read-out: Visual Growth Reduction (%) 14 Days After Application, CYPES

| SMILES | pest or weed control at 35 g/ha [1, 3] [%] | pest or weed control at 70 g/ha [1, 3] [%] | pest or weed control at 140 g/ha [1, 3] [%] | pest or weed control at 35 g/ha [1, 4] [%] | pest or weed control at 70 g/ha [1, 4] [%] | pest or weed control at 140 g/ha [1, 4] [%] | pest or weed control at 35 g/ha [1, 5] [%] | pest or weed control at 70 g/ha [1, 5] [%] | pest or weed control at 140 g/ha [1, 5] [%] | pest or weed control at 35 g/ha [1, 6] [%] | pest or weed control at 70 g/ha [1, 6] [%] | pest or weed control at 140 g/ha [1, 6] [%] | pest or weed control at 35 g/ha [1, 7] [%] | pest or weed control at 70 g/ha [1, 7] [%] | pest or weed control at 140 g/ha [1, 7] [%] | pest or weed control at 35 g/ha [1, 8] [%] | pest or weed control at 70 g/ha [1, 8] [%] | pest or weed control at 140 g/ha [1, 8] [%] | pest or weed control at 35 g/ha [2, 9] [%] | pest or weed control at 70 g/ha [2, 9] [%] | other results |
| --- | --- | --- | --- | --- | --- | --- | --- | --- | --- | --- | --- | --- | --- | --- | --- | --- | --- | --- | --- | --- | --- |
| COC(=O)c1nc(-c2ccc(F)c3c2OCO3)nc(N)c1OC [Compound 97] | 0 to 29 | 0 to 29 | 0 to 29 | 0 to 29 | 0 to 29 | 0 to 29 | 0 to 29 | 0 to 29 | 0 to 29 | 60 to 74 | 85 to 94 | 60 to 74 | 0 to 29 | 0 to 29 | 0 to 29 | 60 to 74 | 75 to 84 | 85 to 94 | 0 to 29 | 0 to 29 | pest or weed control at 140 g/ha [2, 9]: 0 to 29%; pest or weed control at 35 g/ha [2, 10]: 0 to 29%; pest or weed control at 70 g/ha [2, 10]: 0 to 29%; pest or weed control at 140 g/ha [2, 10]: 0 to 29%; pest or weed control at 35 g/ha [2, 11]: 0 to 29%; pest or weed control at 70 g/ha [2, 11]: 0 to 29%; pest or weed control at 140 g/ha [2, 11]: 0 to 29%; pest or weed control at 35 g/ha [2, 12]: 0 to 29%; pest or weed control at 70 g/ha [2, 12]: 0 to 29%; pest or weed control at 140 g/ha [2, 12]: 0 to 29%; pest or weed control at 35 g/ha [2, 13]: 0 to 29%; pest or weed control at 70 g/ha [2, 13]: 0 to 29%; pest or weed control at 140 g/ha [2, 13]: 0 to 29%; pest or weed control at 35 g/ha [2, 14]: 0 to 29%; pest or weed control at 70 g/ha [2, 14]: 0 to 29%; pest or weed control at 140 g/ha [2, 14]: 0 to 29% |
| COC(=O)c1nc(-c2cccc3c2OC(F)(F)O3)nc(N)c1OC [Compound 99] | 0 to 29 | 0 to 29 | 0 to 29 | 0 to 29 | 0 to 29 | 0 to 29 | 0 to 29 | 0 to 29 | 0 to 29 | 60 to 74 | 75 to 84 | 85 to 94 | 0 to 29 | 0 to 29 | 0 to 29 | 75 to 84 | 85 to 94 | 85 to 94 | 0 to 29 | 0 to 29 | pest or weed control at 140 g/ha [2, 9]: 0 to 29%; pest or weed control at 35 g/ha [2, 10]: 0 to 29%; pest or weed control at 70 g/ha [2, 10]: 0 to 29%; pest or weed control at 140 g/ha [2, 10]: 0 to 29%; pest or weed control at 35 g/ha [2, 11]: 0 to 29%; pest or weed control at 70 g/ha [2, 11]: 0 to 29%; pest or weed control at 140 g/ha [2, 11]: 0 to 29%; pest or weed control at 35 g/ha [2, 12]: 0 to 29%; pest or weed control at 70 g/ha [2, 12]: 0 to 29%; pest or weed control at 140 g/ha [2, 12]: 0 to 29%; pest or weed control at 35 g/ha [2, 13]: 0 to 29%; pest or weed control at 70 g/ha [2, 13]: 0 to 29%; pest or weed control at 140 g/ha [2, 13]: 0 to 29%; pest or weed control at 35 g/ha [2, 14]: 0 to 29%; pest or weed control at 70 g/ha [2, 14]: 0 to 29%; pest or weed control at 140 g/ha [2, 14]: 0 to 29% |
| COC(=O)c1nc(-c2ccc(F)c3c2OC(F)(F)O3)cc(N)c1Cl [Compound 88] | 60 to 74 | 85 to 94 | 85 to 94 | 95 to 100 | 95 to 100 | 95 to 100 | 60 to 74 | 60 to 74 | 75 to 84 | 85 to 94 | 85 to 94 | 95 to 100 | 0 to 29 | 0 to 29 | 0 to 29 | 30 to 44 | 60 to 74 | 60 to 74 | 0 to 29 | 0 to 29 | pest or weed control at 140 g/ha [2, 9]: 0 to 29%; pest or weed control at 35 g/ha [2, 10]: 0 to 29%; pest or weed control at 70 g/ha [2, 10]: 0 to 29%; pest or weed control at 140 g/ha [2, 10]: 0 to 29%; pest or weed control at 35 g/ha [2, 11]: 0 to 29%; pest or weed control at 70 g/ha [2, 11]: 0 to 29%; pest or weed control at 140 g/ha [2, 11]: 0 to 29%; pest or weed control at 35 g/ha [2, 12]: 0 to 29%; pest or weed control at 70 g/ha [2, 12]: 0 to 29%; pest or weed control at 140 g/ha [2, 12]: 0 to 29%; pest or weed control at 35 g/ha [2, 13]: 0 to 29%; pest or weed control at 70 g/ha [2, 13]: 45 to 59%; pest or weed control at 140 g/ha [2, 13]: 60 to 74%; pest or weed control at 35 g/ha [2, 14]: 30 to 44%; pest or weed control at 70 g/ha [2, 14]: 60 to 74%; pest or weed control at 140 g/ha [2, 14]: 75 to 84% |
